Entries after “also recorded” stand apart in the source; their conditions may differ.

Results on 1 molecule are retold here after patent US11903386B2, “Strigolactone analogs and their usage in plant control” (King Abdullah University of Science and Technology, priority 2016, dated 2024).

This series deals with rice seedlings (Shiokari, d3, d10). Put plainly: Growth and fresh biomass of hydroponically grown rice seedlings. The class given is in vivo. As to conditions: 2.5 μM, twice a week for three weeks. The protocol: Rice seeds (WT, d3, d10) were surface-sterilized by washing with 70% ethanol for 1 min and then with 2.5% sodium hypochlorite for 15 min. Seeds were then rinsed thoroughly with sterile MilliQ water and incubated in water for 2 days at 30° C. in the dark. Pre-germinated seeds were transferred to filter papers containing ½ strength MS medium in 90 mm petri dishes and incubated at 30° C. under fluorescent white light (130-180 μM m^−2 s^−1) for one week. Seven day-old seedlings were transferred to 50 ml falcon tubes (one seedling per tube) containing modified half-strength Hoagland nutrient solution and grown in greenhouse. Plants were treated with MPs at 2.5 μM-2.5×10-7 μM, using GR24 as positive control. The compounds were applied six times, twice a week. Number of tillers per plant, plant height and fresh biomass were measured at final harvest.

Consider `COC(=O)/C(=C/OC1C=C(C)C(=O)O1)c1ccccc1` (racemic) [MP3, (E)-methyl 3-(4-methyl-5-oxo-2,5-dihydrofuran-2-yloxy)-2-phenylacrylate], for which the “Growth, senescence symptoms and biomass of rice seedlings” value was “stunted the growth and caused senescence symptoms; also recorded: growth retardation and senescence”.
